# Source: US11717549B2, “Steviol glycoside solubility enhancers” (CARGILL, INCORPORATED, priority 2017, dated 2023)
# Assay: not given
# Conditions: in beverage formulations; cited from earlier work
row,Molecule,aqueous solubility and dissolution qualities
1,"C=C1C[C@@]23CC[C@H]4[C@@](C)(CCC[C@@]4(C)C(=O)O[C@@H]4O[C@H](CO)[C@@H](O)[C@H](O[C@@H]5O[C@H](CO)[C@@H](O)[C@H](O)[C@H]5O)[C@H]4O[C@@H]4O[C@H](CO)[C@@H](O)[C@H](O)[C@H]4O)[C@@H]2CC[C@]1(O[C@@H]1O[C@H](CO)[C@@H](O)[C@H](O[C@@H]2O[C@H](CO)[C@@H](O)[C@H](O)[C@H]2O)[C@H]1O[C@@H]1O[C@H](CO)[C@@H](O)[C@H](O)[C@H]1O)C3 [Rebaudioside M, rebaudioside M]",poor aqueous solubility

# Assay: Observation for solubility / precipitation of acid and steviol glycoside samples in water (Example I)
# Conditions: 0.3% steviol glycoside; 5:1 and 2:1 molar ratio of pamoic acid to steviol glycoside; pH not adjusted
row,Molecule,solubility of sample (conclusion)
1,pamoic acid,not initially soluble and remained insoluble at least after 1 day

# Assay: Equilibrium solubility: mixed with deionized water at 80° C. for 15 minutes, cooled to room temperature, observed at least four days
# Assay type: physicochemical
# Conditions: after heating to 80° C. for 15 minutes
# Description: (§1) The composition can optionally be expressed in terms of the concentration of one or more steviol glycoside(s). […] Clear solutions without precipitates are considered soluble. Unless indicated otherwise herein, the term “solubility” refers to “equilibrium solubility.”
row,Molecule,equilibrium solubility
1,"C=C1C[C@@]23CC[C@H]4[C@@](C)(CCC[C@@]4(C)C(=O)O[C@@H]4O[C@H](CO)[C@@H](O)[C@H](O)[C@H]4O[C@@H]4O[C@H](CO)[C@@H](O)[C@H](O)[C@H]4O)[C@@H]2CC[C@]1(O[C@@H]1O[C@H](CO)[C@@H](O)[C@H](O[C@@H]2O[C@H](CO)[C@@H](O)[C@H](O)[C@H]2O)[C@H]1O[C@@H]1O[C@H](CO)[C@@H](O)[C@H](O)[C@H]1O)C3 [Rebaudioside D, rebaudioside D]",0.08%
2,"C=C1C[C@@]23CC[C@H]4[C@@](C)(CCC[C@@]4(C)C(=O)O[C@@H]4O[C@H](CO)[C@@H](O)[C@H](O[C@@H]5O[C@H](CO)[C@@H](O)[C@H](O)[C@H]5O)[C@H]4O[C@@H]4O[C@H](CO)[C@@H](O)[C@H](O)[C@H]4O)[C@@H]2CC[C@]1(O[C@@H]1O[C@H](CO)[C@@H](O)[C@H](O[C@@H]2O[C@H](CO)[C@@H](O)[C@H](O)[C@H]2O)[C@H]1O[C@@H]1O[C@H](CO)[C@@H](O)[C@H](O)[C@H]1O)C3 [Rebaudioside M, rebaudioside M]",about 0.2%

# Assay: not given
# Conditions: temperature 13.5 ° C.; cited from earlier work
row,Molecule,solubility (ppm)
1,CC(C)(C(=O)O)C(C)(C)C(=O)O [tetramethylbutanedioic acid],4.78E+03

# Same assay, conditions: temperature 14 ° C.; cited from earlier work
row,Molecule,solubility (ppm)
1,CCOc1ccc(NC(=O)C(O)C(O)C(=O)O)cc1 (stereo not shown) [ethonyphenyl tartramic acid],3.97E+03

# Same assay, conditions: temperature 17 ° C.; cited from earlier work
row,Molecule,solubility (ppm)
1,CC1=NN(c2ccc([N+](=O)[O-])cc2)C(=O)C1[N+](=O)[O-] (stereo not shown) [picrolonic acid],8.92E+03

# Same assay, conditions: temperature 18 ° C.; cited from earlier work
row,Molecule,solubility (ppm)
1,"O=C1c2cccc(S(=O)(=O)Nc3ccccc3)c2C(=O)c2c1cccc2S(=O)(=O)Nc1ccccc1 [1,8-anthraquinone disulfonic acid anilide]",2.27E+04
2,"1,5-anthraquinone disulfonic acid anilide",3.97E+03

# Same assay, conditions: temperature 20 ° C.; cited from earlier work
row,Molecule,solubility (ppm)
1,Cc1ccc(N)cc1S(=O)(=O)O [4-amino-o-toluenesulfonic acid],4.48E+03
2,CCNC(=O)[C@@H](C)OC(=O)Nc1ccccc1 [D-(−)-carbanilic acid (1-ethylcarbamoyl)ethyl ester],3.49E+03
3,"O=C(O)C(O)c1ccccc1 (racemic) [alpha-hydroxybenzeneacetic acid, (±)]",1.21E+05
4,CC(C)C1C(=O)NC(=O)NC1=O [isopropylbarbituric acid],5.89E+03
5,O=C(O)C(CO)c1ccccc1 (stereo not drawn) [alpha-(hydroxymethyl)benezeneacetic acid],1.91E+04
6,O=C(O)c1cccc(O)c1 [m-hydroxybenzoic acid],8.45E+03

# Same assay, conditions: temperature 21 ° C.; cited from earlier work
row,Molecule,solubility (ppm)
1,O=C(O)CCCCCCCCCC(=O)O [undecanedioic acid],5.07E+03

# Same assay, conditions: temperature 25 ° C.; cited from earlier work
row,Molecule,solubility (ppm)
1,CC=CCCCC(=O)O [5-heptenoic acid],6.79E+03
2,CC(C)C=CCCC(=O)O [6-methyl-4-heptenoic acid],4.64E+03
3,"O=C(O)c1ccc([N+](=O)[O-])c([N+](=O)[O-])c1 [3,4-dinitrobenzoic acid]",6.66E+03
4,"CCCOC(=O)OC(C)C(=O)OC (stereo not shown) [propanoic acid, 2-[(propoxycarbonyl)oxy]-, methyl ester]",5.15E+03
5,O=C(O[C@@H](C(=O)O)c1ccccc1)c1ccccc1 [benzoyl-r-mandelic acid],7.78E+03
6,C=CCC1(CC)C(=O)NC(=O)NC1=O [5-allyl-5-ethylbarbituric acid],4.75E+03
7,CCCC=CCC(=O)O [3-heptenoic acid],5.37E+03
8,O=C(O)c1cccc(Br)c1[N+](=O)[O-] [3-bromo-2-nitrobenzoic acid],7.36E+03
9,O=C(O)c1ccccc1F [2-fluorobenzoic acid],7.15E+03
10,CCC(=O)O[C@@H](C(=O)O)c1ccccc1 [propionyl-r-mandelic acid],5.15E+03
11,CCC(C)(CC)C(=O)O [2-ethyl-2-methylbutanoic acid],9.69E+03
12,"O=C(O)[C@@H](O)c1ccccc1 [alpha-hydroxybenzeneacetic acid, (S)]",9.26E+04
13,CC(=O)Oc1ccccc1C(=O)O [2-(acetyloxy)benzoic acid],4.58E+03
14,CCCCC(C)C(=O)O (racemic) [2-methylhexanoic acid],6.07E+03
15,"CCCCC(C)(C)C(=O)O [2,2-dimethylhexanoic acid]",3.44E+03
16,CCC=CCCC(=O)O [4-heptenoic acid],5.37E+03
17,CCCC=C(C)CC(=O)O [3-methyl-3-heptenoic acid],4.64E+03
18,CCC=CC(C)CC(=O)O (stereo not shown) [3-methyl-4-heptenoic acid],4.64E+03

# Same assay, conditions: temperature 37 ° C.; cited from earlier work
row,Molecule,solubility (ppm)
1,CCC(COCCOc1c(I)cc(I)c(NC(C)=O)c1I)C(=O)O (stereo not shown) [iopronic acid],1.97E+04

# Same assay, conditions: temperature 100 ° C.; cited from earlier work
row,Molecule,solubility (ppm)
1,N[C@@H](CSCSC[C@H](N)C(=O)O)C(=O)O [djenkolic acid],4.98E+03
2,Cc1ccc(O)c(C(=O)O)c1 [2-hydroxy-5-methylbenzoic acid],2.14E+04
3,Cc1ccc(C(=O)O)cc1O [3-hydroxy-4-methylbenzoic acid],4.17E+04

# Assay: Instantaneous solubility: vigorously mixed with water at room temperature (25° C.)
# Assay type: physicochemical
# Conditions: in water at room temperature, absence of compounds that enhance solubility
# Description: as §1
row,Molecule,instantaneous solubility
1,"C=C1C[C@@]23CC[C@H]4[C@@](C)(CCC[C@@]4(C)C(=O)O[C@@H]4O[C@H](CO)[C@@H](O)[C@H](O)[C@H]4O[C@@H]4O[C@H](CO)[C@@H](O)[C@H](O)[C@H]4O)[C@@H]2CC[C@]1(O[C@@H]1O[C@H](CO)[C@@H](O)[C@H](O[C@@H]2O[C@H](CO)[C@@H](O)[C@H](O)[C@H]2O)[C@H]1O[C@@H]1O[C@H](CO)[C@@H](O)[C@H](O)[C@H]1O)C3 [Rebaudioside D, rebaudioside D]",less than 0.08%
2,"C=C1C[C@@]23CC[C@H]4[C@@](C)(CCC[C@@]4(C)C(=O)O[C@@H]4O[C@H](CO)[C@@H](O)[C@H](O[C@@H]5O[C@H](CO)[C@@H](O)[C@H](O)[C@H]5O)[C@H]4O[C@@H]4O[C@H](CO)[C@@H](O)[C@H](O)[C@H]4O)[C@@H]2CC[C@]1(O[C@@H]1O[C@H](CO)[C@@H](O)[C@H](O[C@@H]2O[C@H](CO)[C@@H](O)[C@H](O)[C@H]2O)[C@H]1O[C@@H]1O[C@H](CO)[C@@H](O)[C@H](O)[C@H]1O)C3 [Rebaudioside M, rebaudioside M]",about 0.13%
